The text below walks through data of PubChem BioAssay (NCI).

Among the test systems are HOP-92 NSCLC; DLD-1 colon; SK-MEL-2 melanoma; DMS 273 small cell lung; HL-60(TB) leukemia; M19-MEL melanoma; SNB-78 CNS; SNB-75 CNS; MDA-MB-435; NCI/ADR-RES ovarian; T-47D breast; HS 578T breast; MDA-N; BT-549 breast.
What all share (experiment): DTP human tumour cell line panel, 48 h

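Step 1: Grow cells in 96-well plates. Step 2: Expose to compound for 48 hours at 5 concentrations. Step 3: Interpolate endpoints linearly; if unreached, use highest concentration. GI50 is the concentration that inhibits growth by half. TGI: concentration producing complete growth inhibition.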

`O=c1oc2ccccc2n1P(=O)(n1c(=O)oc2ccccc21)n1c(=O)oc2ccccc21`: the total growth inhibition concentration (TGI) in the assay with HOP-92 NSCLC, in the assay with DLD-1 colon, in the assay with SK-MEL-2 melanoma, with DMS 273 small cell lung, in the assay with HL-60(TB) leukemia and with M19-MEL melanoma was more than 100 µM in each case. Besides, the concentration for total growth inhibition (TGI) in the assay with SNB-78 CNS and in the assay on SNB-75 CNS was more than 100 µM in each case.
On to `CS/C(C#N)=C(\C#N)SC`, for which the concentration for total growth inhibition (TGI) is 31.7 µM with SK-MEL-2 melanoma; 40.5 µM with MDA-MB-435; 6.39 µM in the assay on HL-60(TB) leukemia; more than 100 µM in the assay on NCI/ADR-RES ovarian; 26.2 µM in the assay on T-47D breast; more than 100 µM in the assay with HS 578T breast. In addition, the concentration for total growth inhibition (TGI) with SNB-75 CNS is more than 100 µM.
`CC(C)OC(=O)Nc1cccc(Cl)c1`: the TGI with HOP-92 NSCLC, in the assay on MDA-N, with SK-MEL-2 melanoma, in the assay with MDA-MB-435, with HL-60(TB) leukemia and in the assay on NCI/ADR-RES ovarian was more than 100 µM each time. For the same compound, the total growth inhibition concentration (TGI) in the assay with T-47D breast, in the assay with BT-549 breast, in the assay on HS 578T breast and with SNB-75 CNS was more than 100 µM throughout.
As to `CN(C)CC1CCCC(CN2CCCCC2)C1=O` (stereo unspecified), the TGI came out at 3.8 µM in the assay on HOP-92 NSCLC; 8.92 µM in the assay with DLD-1 colon; 27.5 µM in the assay on MDA-N; 31.1 µM in the assay with SK-MEL-2 melanoma; 31.1 µM in the assay with MDA-MB-435; 54.9 µM in the assay on DMS 273 small cell lung. Also, the TGI in the assay with HL-60(TB) leukemia turned out to be 11.8 µM; with NCI/ADR-RES ovarian, 14.6 µM; in the assay on M19-MEL melanoma it was 34.7 µM; in the assay with T-47D breast it was 4.85 µM; in the assay with BT-549 breast it was 28.7 µM; in the assay with SNB-78 CNS it was 23.9 µM. Also, the total growth inhibition concentration (TGI) in the assay with HS 578T breast amounted to 59 µM; with SNB-75 CNS, 43.2 µM.
Take `[O-]c1c[n+](CCCC[n+]2cc([O-])on2)no1`: the total growth inhibition concentration (TGI) with HOP-92 NSCLC, in the assay with MDA-N, in the assay on SK-MEL-2 melanoma, with MDA-MB-435, with HL-60(TB) leukemia and with NCI/ADR-RES ovarian was more than 100 µM in each case. Besides, the total growth inhibition concentration (TGI) in the assay with T-47D breast, in the assay with BT-549 breast, in the assay on HS 578T breast and in the assay on SNB-75 CNS was more than 100 µM throughout.
Regarding `Cc1cccc(O)c1-c1nnc(CCCCCCCCc2nnc(-c3c(C)cccc3O)n2N)n1N`, the TGI was more than 31.6 µM with HOP-92 NSCLC; more than 100 µM with MDA-N; more than 83.3 µM with SK-MEL-2 melanoma; more than 100 µM with MDA-MB-435; more than 100 µM in the assay on HL-60(TB) leukemia; more than 100 µM in the assay with T-47D breast. Further, the TGI with BT-549 breast was more than 100 µM; in the assay on HS 578T breast, more than 100 µM; in the assay on SNB-75 CNS it was more than 58.1 µM.
`Cc1ccc(S(=O)(=O)N2c3ccccc3[C@H]3CCc4c([nH]c5ccccc45)[C@H]32)cc1`: the TGI in the assay with HOP-92 NSCLC, in the assay on MDA-N, in the assay on SK-MEL-2 melanoma, in the assay with MDA-MB-435, in the assay with NCI/ADR-RES ovarian and in the assay with T-47D breast was more than 100 µM in each case. In addition, the TGI in the assay on BT-549 breast and in the assay on SNB-75 CNS was more than 100 µM throughout.
In the case of `C[C@H]1C(=O)O[C@@H]1[C@H]1COC(C)(C)O1`, the TGI in the assay with HOP-92 NSCLC, with MDA-N, in the assay on SK-MEL-2 melanoma, with MDA-MB-435, with HL-60(TB) leukemia and in the assay on NCI/ADR-RES ovarian was more than 100 µM throughout. Besides, the TGI in the assay with BT-549 breast and in the assay on SNB-75 CNS was more than 100 µM in each case.
On to `CC(N)C(=O)OCN1C(=O)C2C3C=CC(C2C1=O)C1C2C(=O)N(COC(=O)C(C)N)C(=O)C2C31` (stereo unspecified), for which the concentration for total growth inhibition (TGI) was more than 100 µM in the assay with HOP-92 NSCLC; 54.4 µM in the assay with DLD-1 colon; 39 µM in the assay on SK-MEL-2 melanoma; 36.7 µM in the assay with DMS 273 small cell lung; 62.2 µM with HL-60(TB) leukemia; 40 µM with M19-MEL melanoma. Moreover, the TGI in the assay on SNB-78 CNS is more than 100 µM; in the assay with SNB-75 CNS, 85.5 µM.
On to `CO[C@H]1ON=C(c2c(C)cc(C)cc2C)[C@@H]1C1(c2ccccc2)ON=C(c2c(C)cc(C)cc2C)O1` (stereo partly specified), for which the TGI with HOP-92 NSCLC, with DLD-1 colon, in the assay on SK-MEL-2 melanoma, in the assay on DMS 273 small cell lung, in the assay on HL-60(TB) leukemia and in the assay on M19-MEL melanoma was more than 100 µM in each case. Further, in the assay with SNB-78 CNS, the TGI is more than 100 µM.
With `Cc1ccccc1[P+](C)(c1ccccc1C)c1ccccc1C`, the TGI in the assay with HOP-92 NSCLC turned out to be 58 µM; in the assay on SK-MEL-2 melanoma, 34.7 µM; with MDA-MB-435 it was 21 µM; in the assay on NCI/ADR-RES ovarian it was 58.8 µM; in the assay with T-47D breast it was 12.9 µM; in the assay on BT-549 breast, 63.1 µM. For the same compound, the TGI is 55 µM with HS 578T breast and 40.8 µM with SNB-75 CNS.
As for `Nc1nc(Cl)cc(NCCCNc2cc(Cl)nc(N)n2)n1`, the TGI with HOP-92 NSCLC, in the assay with DLD-1 colon, in the assay with SK-MEL-2 melanoma, with DMS 273 small cell lung, in the assay on HL-60(TB) leukemia and in the assay on M19-MEL melanoma was more than 100 µM each time. In the assay on SNB-75 CNS, this compound came in with a TGI of more than 100 µM.
As to `COC(=O)C(=O)C(C(=O)C1=NS(=O)(=O)c2cc(S(N)(=O)=O)c(Cl)cc2N1)c1nc2ccc(C(=O)c3ccccc3)cc2[nH]c1=O` (stereo unspecified), the TGI with SK-MEL-2 melanoma, in the assay on DMS 273 small cell lung, in the assay on M19-MEL melanoma and with SNB-78 CNS was more than 100 µM throughout.
`Cn1cc(-c2csc(-c3cn(C)c4ccc(Br)cc34)n2)c2cnccc21`: the GI50 in the assay on SK-MEL-2 melanoma is 1.93 µM; with MDA-MB-435, 1.76 µM; with HL-60(TB) leukemia, 1.48 µM; in the assay with NCI/ADR-RES ovarian, 2.07 µM; in the assay with HS 578T breast, 2.23 µM; in the assay on SNB-75 CNS, 1.28 µM. For the same compound, the TGI with SK-MEL-2 melanoma worked out at 3.76 µM; in the assay on MDA-MB-435, 3.22 µM; in the assay with HL-60(TB) leukemia, 3.31 µM; in the assay with NCI/ADR-RES ovarian it was 3.91 µM; in the assay with HS 578T breast it was 4.73 µM; with SNB-75 CNS it was 2.6 µM.
Regarding `NC(=O)c1ccc(NS(=O)(=O)c2ccc(N)cc2)nc1`, the total growth inhibition concentration (TGI) in the assay with HOP-92 NSCLC, in the assay on MDA-N, with SK-MEL-2 melanoma, in the assay with MDA-MB-435, with HL-60(TB) leukemia and in the assay on NCI/ADR-RES ovarian was more than 100 µM in each case. Moreover, the TGI in the assay on T-47D breast, in the assay with BT-549 breast, with HS 578T breast and with SNB-75 CNS was more than 100 µM each time.
As to `CN1C(=O)CN2C(Cl)(Cl)C2(c2ccccc2F)c2cc([N+](=O)[O-])ccc21` (stereo unspecified), the TGI in the assay on HOP-92 NSCLC was 91.4 µM; in the assay on DLD-1 colon, more than 100 µM; in the assay on SK-MEL-2 melanoma, more than 100 µM; with DMS 273 small cell lung, more than 100 µM; with M19-MEL melanoma, more than 100 µM; in the assay on SNB-75 CNS it was more than 100 µM.
On to `C1CCC(OCc2nnn3c2CCC3)OC1` (stereo unspecified), for which the TGI in the assay with HOP-92 NSCLC, in the assay on DLD-1 colon, in the assay on SK-MEL-2 melanoma, in the assay on HL-60(TB) leukemia, with M19-MEL melanoma and in the assay on SNB-78 CNS was more than 100 µM in each case. The TGI in the assay with SNB-75 CNS was more than 100 µM.
For the compound `c1ccc(CSC2(SCc3ccccc3)CCCC2)cc1`, the TGI with MDA-N, with SK-MEL-2 melanoma, with MDA-MB-435, in the assay on HL-60(TB) leukemia, in the assay on NCI/ADR-RES ovarian and in the assay on T-47D breast was more than 10 µM in each case. For the same compound, the total growth inhibition concentration (TGI) with HS 578T breast and in the assay on SNB-75 CNS was more than 10 µM in each case.

In general, TGI refers to the concentration giving total growth inhibition. Low values mean greater sensitivity of the cells, high ones lower sensitivity of the cells. What is called GI50 is the concentration that inhibits growth by half.
